Laboratory results from US11059824B2, “Substituted purines as TLR7 agonists” (Primmune Therapeutics, Inc., priority 2018, dated 2021).
pEC50: −log10 of the molar value. Several values for one entry are separate records, joined by “and”; a condition that tells them apart may be missing. Identical values can stand only once. Marks after values point to notes of the source that are not given here.

Assays:
[1] = target: human TLR8 (Homo sapiens (Human), UniProt Q9NR97); assay: TLR8 reporter cell assay (HEK293-TLR-NF-κB inducible SEAP reporter); assay type: cell-based; settings: incubation with resiquimod
Source text: The engagement of TLRs by cognate ligands triggers downstream signaling cascades, leading to the activation of NF-κB and other transcription factors which initiate various immunomodulatory effects. The human embryonic kidney cell line, HEK293, is essentially non-responsive to TLR agonists, but ectopic expression of TLRs in these cells allows cognate agonists to activate endogenous NF-κB. Accordingly, the HEK293-TLR-NF-κB inducible reporter system is used to assay TLR agonists. HEK293 cell lines stably expressing human TLR7 or TLR8 together with an NF-κB-driven-secreted alkaline phosphatase (SEAP) reporter were invented at InvivoGen (San Diego, Calif., USA) and used to assess compounds of the present invention for TLR7 and TLR8 agonist activities. Cells were seeded at 2-5×10^4 cells/well in 96 well plates ([…]) and treated with various concentrations of compound (10 μl) for 15-24 hours. SEAP activity was determined by measuring OD at 650 nm; the media used to culture the cell lines contains the reagents required for SEAP detection. […]

[2] = target: human TLR7 (Homo sapiens (Human), UniProt Q9NYK1); assay: TLR7 reporter assay (HEK293-TLR-NF-κB inducible SEAP reporter); assay type: cell-based; settings: HEK293 cells stably expressing human TLR7 with NF-κB-driven SEAP reporter; 15-24 hours
Source text: The engagement of TLRs by cognate ligands triggers downstream signaling cascades, leading to the activation of NF-κB and other transcription factors which initiate various immunomodulatory effects. The human embryonic kidney cell line, HEK293, is essentially non-responsive to TLR agonists, but ectopic expression of TLRs in these cells allows cognate agonists to activate endogenous NF-κB. Accordingly, the HEK293-TLR-NF-κB inducible reporter system is used to assay TLR agonists. HEK293 cell lines stably expressing human TLR7 or TLR8 together with an NF-κB-driven-secreted alkaline phosphatase (SEAP) reporter were invented at InvivoGen (San Diego, Calif., USA) and used to assess compounds of the present invention for TLR7 and TLR8 agonist activities. Cells were seeded at 2-5×10^4 cells/well in 96 well plates ([…]) and treated with various concentrations of compound (10 μl) for 15-24 hours. SEAP activity was determined by measuring OD at 650 nm; the media used to culture the cell lines contains the reagents required for SEAP detection. The EC50 values in Table 2 are calculated from fitting the dose response of measured SEAP activity for each compound to the following equation: Y=ymax*c^nh/(EC50^nh+c^nh)+blank where Y is the experimentally measured OD650 at concentration c of test article, blank is the observed OD650 in the absence of TLR7 agonist, ymax is the difference between the measured OD650 in the presence of either 28.5 μM resiquimod or 1.675 μM CL307 and the blank and values of EC50 and nh are determined by nonlinear least squares analysis.

[3] = system: interferon-α production in hPBMCs; assay: Induction of interferon-α production in hPBMCs; assay type: cell-based, human; settings: interferon-α production from hPBMCs; for Weighted MEC: geometric mean of all individual MECs across all donors, 24 hours; for individual MEC values: per donor
Experimental: Treatment of hPBMCs with a TLR7 agonist typically induces substantial production of interferon-α as well as lesser amounts of a variety of other cytokines and chemokines. A typical experiment uses hPBMCs isolated from a healthy donor and placed in replicate cell culture wells; typically 1.0-7.5×10^6 cells are placed in each well. Test compound is added and the cells cultured for 24 hours at 37° C. in a humidified atmosphere containing 5% CO2 post-addition; untreated controls are included. Secreted interferon-α production is measured using an a multisubtype interferon-α ELISA kit like those from PBL Assay Sciences or specifically as IFNα2a as part of a panel of cytokines and chemokines using luminex methodologies. The minimal effective concentration (MEC) is the minimum concentration in a dose response curve where a significant increase in interferon-α production (generally at least 20 pg/ml) is observed above baseline. MEC values for each compound are determined for at least three donors. The weighted MEC for each compound is the geometric mean of all individual MECs across all donors. Concentrations tested typically consist of a two-fold dilution series starting at 100 μM. In the calculation of weighted MEC, any value >100 μM is arbitrarily set to 200 μM unless all MECs for a compound exceed 100 μM

[4] = system: B16-F10 rodent melanoma tumor cells; assay: Antitumor activity in rodent model (B16-F10 syngenic); assay type: in vivo, mice; settings: IV by tail vein, 10 total doses, two weeks after randomization
Experimental: B16-F10 rodent melanoma tumor cells were injected into the flank of 32 mice in a syngenic model. […] Administration of the drugs was initiated on the following day. Tumor volumes were monitored for two weeks.

[5] = Oral bioavailability in cynomolgus monkeys; assay type: in vivo; settings: vs loxoribine administered orally as itself or as prodrugs
Experimental: From two to four male or female cynomolgus monkeys were used for animal testing studies. The study compounds were formulated in a vehicle (e.g. 50 mM Phosphate Buffered Saline, pH 7.4) appropriate for animal oral or intravenous administration. Parent compounds 1, 5, 26 and 27 were administered at 1 mg/kg by IV administration whereas prodrugs of the corresponding compounds were administered at 2 mg/kg. After dosing, 0.5 mL blood samples were collected typically at 0.083, 0.33, 1, 2, 4, 6, 8, 12 and 24 hours post-dosing (iv administration) or 0.25, 0.5, 1, 2, 4, 6, 8, 12 and 24 hours post-dosing (oral administration). Plasma was separated from blood and analyzed for the active agonists by well-known LC-MS techniques. […] Percent bioavailability (F %) of compounds when administered orally as prodrug was calculated from the ratio of dose-normalized AUC of parent from oral prodrug administration to that of dose-normalized parent AUC from IV parent administration and reported in Table 4.

[6] = cynomolgus monkeys, from Table 23 of U.S. Pat. No. 7,575,068 B2, cited from earlier work; for % F (percent bioavailability of loxoribine administered as prodrug): oral prodrug of loxoribine

Chain of human TLR7 (Q9NYK1 27-1049): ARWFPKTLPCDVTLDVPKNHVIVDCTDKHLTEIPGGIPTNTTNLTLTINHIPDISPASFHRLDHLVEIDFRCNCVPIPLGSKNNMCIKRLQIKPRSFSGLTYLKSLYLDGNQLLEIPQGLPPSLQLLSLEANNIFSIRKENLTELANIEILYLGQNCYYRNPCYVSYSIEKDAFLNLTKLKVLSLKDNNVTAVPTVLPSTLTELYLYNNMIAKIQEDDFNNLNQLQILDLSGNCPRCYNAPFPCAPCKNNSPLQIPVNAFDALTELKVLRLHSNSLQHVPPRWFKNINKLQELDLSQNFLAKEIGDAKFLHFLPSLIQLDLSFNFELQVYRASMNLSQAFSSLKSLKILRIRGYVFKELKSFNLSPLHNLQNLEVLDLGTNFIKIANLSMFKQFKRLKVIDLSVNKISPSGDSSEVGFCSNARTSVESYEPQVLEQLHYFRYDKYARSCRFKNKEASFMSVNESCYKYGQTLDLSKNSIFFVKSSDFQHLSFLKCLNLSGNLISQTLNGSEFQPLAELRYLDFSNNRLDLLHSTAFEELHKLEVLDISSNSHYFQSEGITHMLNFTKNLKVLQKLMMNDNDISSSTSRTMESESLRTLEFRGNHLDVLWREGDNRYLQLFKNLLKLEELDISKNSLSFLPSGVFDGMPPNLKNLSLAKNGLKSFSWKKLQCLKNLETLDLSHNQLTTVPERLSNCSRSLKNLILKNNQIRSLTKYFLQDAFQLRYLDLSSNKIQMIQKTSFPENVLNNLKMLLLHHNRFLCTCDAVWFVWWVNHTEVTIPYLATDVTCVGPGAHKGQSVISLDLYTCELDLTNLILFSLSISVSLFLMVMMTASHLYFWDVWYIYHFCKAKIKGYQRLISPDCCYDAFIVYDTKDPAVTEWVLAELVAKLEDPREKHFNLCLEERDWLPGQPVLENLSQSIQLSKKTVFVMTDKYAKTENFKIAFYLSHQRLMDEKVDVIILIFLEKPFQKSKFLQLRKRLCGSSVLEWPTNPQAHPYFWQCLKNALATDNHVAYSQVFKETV
Chain of human TLR8 (Q9NR97 27-1041): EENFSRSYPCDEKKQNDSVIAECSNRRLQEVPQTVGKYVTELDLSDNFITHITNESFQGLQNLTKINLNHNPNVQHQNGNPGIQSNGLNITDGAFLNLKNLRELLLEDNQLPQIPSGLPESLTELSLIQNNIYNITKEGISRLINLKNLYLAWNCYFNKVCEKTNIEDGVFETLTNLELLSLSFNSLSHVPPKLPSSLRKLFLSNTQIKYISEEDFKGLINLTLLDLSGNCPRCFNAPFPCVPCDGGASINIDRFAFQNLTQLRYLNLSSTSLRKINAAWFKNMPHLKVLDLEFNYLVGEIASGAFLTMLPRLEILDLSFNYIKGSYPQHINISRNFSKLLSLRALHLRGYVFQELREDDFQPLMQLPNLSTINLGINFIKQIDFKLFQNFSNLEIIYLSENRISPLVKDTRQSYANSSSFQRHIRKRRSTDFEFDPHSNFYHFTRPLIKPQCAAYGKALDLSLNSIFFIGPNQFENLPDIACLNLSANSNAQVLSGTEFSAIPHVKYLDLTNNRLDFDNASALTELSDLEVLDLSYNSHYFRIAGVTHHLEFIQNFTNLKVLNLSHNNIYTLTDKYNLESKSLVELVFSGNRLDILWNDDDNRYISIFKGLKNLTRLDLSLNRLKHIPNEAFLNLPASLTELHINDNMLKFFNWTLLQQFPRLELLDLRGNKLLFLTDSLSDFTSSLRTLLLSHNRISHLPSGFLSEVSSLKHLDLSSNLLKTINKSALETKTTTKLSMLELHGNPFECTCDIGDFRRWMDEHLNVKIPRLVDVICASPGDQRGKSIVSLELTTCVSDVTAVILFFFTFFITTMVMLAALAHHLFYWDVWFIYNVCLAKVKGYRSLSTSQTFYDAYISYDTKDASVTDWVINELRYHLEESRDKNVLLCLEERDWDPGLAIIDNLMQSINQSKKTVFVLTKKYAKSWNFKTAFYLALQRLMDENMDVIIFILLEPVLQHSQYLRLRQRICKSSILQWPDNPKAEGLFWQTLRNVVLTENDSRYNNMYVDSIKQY

| SMILES | pEC50 [2] | Weighted MEC [3] | individual MEC values [3] | further results |
| --- | --- | --- | --- | --- |
| CCOCc1nc2c(N)nc3ccccc3c2n1CC(C)(C)O [resiquimod] | – | – | – | induction of SEAP production in the TLR8 reporter cell assay [1]: Substantial induction of SEAP production |
| C#CCn1c(=O)n([C@@H]2O[C@H](CO)[C@H](O)[C@H]2O)c2nc(N)[nH]c(=O)c21 [Compound 5, 2-Amino-9-((2R,3R,4R,5R)-3,4-dihydroxy-5-(hydroxymethyl)tetrahydrofuran-2-yl)-7-(prop-2-yn-1-yl)-7,9-dihydro-1H-purine-6,8-dione] | 3.53 | less than or equal to 40 μM and 34 μM | < 100 µM | Mean tumor growth inhibition (% TGI) versus the control group ([4]; group (ii): 40 mg/kg, BID for five consecutive days): 40%; Mean tumor growth inhibition (% TGI) versus the control group ([4]; group (iii): 40 mg/kg, BID every other day): 64% |
| Nc1nc2c(c(=O)[nH]1)n(CC1CC1)c(=O)n2[C@@H]1O[C@H](CO)[C@H](O)[C@H]1O [Compound 1, 2-Amino-7-(cyclopropylmethyl)-9-((2R,3R,4R,5R)-3,4-dihydroxy-5-(hydroxymethyl)tetrahydrofuran-2-yl)-7,9-dihydro-1H-purine-6,8-dione] | 3.73 | 66* μM | – | Systemic delivery by prodrugs compared with loxoribine [5]: substantially greater than loxoribine |
| C=CCn1c(=O)n([C@@H]2O[C@H](CO)[C@@H](O)[C@H]2O)c2nc(N)nc(OCC)c21 [7-allyl-2-amino-6-ethoxy-9-β-D-ribofuranosyl-7,9-dihydropurin-8-one] | – | – | – | % F (percent bioavailability of loxoribine administered as prodrug) [6]: 9% |
| C#CCn1c(=O)n([C@@H]2O[C@H](CO)[C@@H](F)[C@H]2O)c2nc(N)[nH]c(=O)c21 [Compound 27, 2-Amino-9-((2R,3S,4S,5R)-4-fluoro-3-hydroxy-5-(hydroxymethyl)tetrahydrofuran-2-yl)-7-(prop-2-yn-1-yl)-7,9-dihydro-1H-purine-6,8-dione] | 3.42 | less than or equal to 40 μM and 23 μM | < 100 µM | Systemic delivery by prodrugs compared with loxoribine [5]: substantially greater than loxoribine |
| C=CCn1c(=O)n([C@@H]2O[C@H](CO)[C@@H](O)[C@H]2O)c2nc(N)[nH]c(=O)c21 [loxoribine, reference compound] | 3.49 | 136* μM | – | % F (intrinsic bioavailability of loxoribine) ([6]; loxoribine administered orally as loxoribine itself): 2%^b |
| C/C=C/Cn1c(=O)n([C@@H]2O[C@H](CO)[C@H](O)[C@H]2O)c2nc(N)[nH]c(=O)c21 [Compound 7, 2-Amino-7-((E)-but-2-en-1-yl)-9-((2R,3R,4R,5R)-3,4-dihydroxy-5-(hydroxymethyl)tetrahydrofuran-2-yl)-7,9-dihydro-1H-purine-6,8-dione] | 3.27 | 63 µM | – | – |
| Nc1nc2c(c(=O)[nH]1)n(CCCCO)c(=O)n2[C@@H]1O[C@H](CO)[C@H](O)[C@H]1O [Compound 19, 2-Amino-9-((2R,3R,4R,5R)-3,4-dihydroxy-5-(hydroxymethyl)tetrahydrofuran-2-yl)-7-(4-hydroxybutyl)-7,9-dihydro-1H-purine-6,8-dione] | 3.31 | >100* μM | – | – |
| C#CCn1c(=O)n([C@@H]2O[C@H](CO)C[C@H]2O)c2nc(N)[nH]c(=O)c21 [Compound 26, 2-Amino-9-((2R,3R,5S)-3-hydroxy-5-(hydroxymethyl)tetrahydrofuran-2-yl)-7-(prop-2-yn-1-yl)-7,9-dihydro-1H-purine-6,8-dione] | 3.28 | less than or equal to 40 μM and 31 μM | < 100 µM | Systemic delivery by prodrugs compared with loxoribine [5]: substantially greater than loxoribine |
| C=CCn1c(=O)n([C@@H]2O[C@H](CO)[C@@H](O)[C@H]2O)c2nc(N)ncc21 [7-allyl-2-amino-9-β-D-ribofuranosyl-7,9-dihydropurin-8-one] | – | – | – | % F (percent bioavailability of loxoribine administered as prodrug) [6]: 13% |
| COC(=O)/C=C/Cn1c(=O)n([C@@H]2O[C@H](CO)[C@H](O)[C@H]2O)c2nc(N)[nH]c(=O)c21 [Compound 10, Methyl (E)-4-(2-amino-9-((2R,3R,4R,5R)-3,4-dihydroxy-5-(hydroxymethyl)tetrahydrofuran-2-yl)-6,8-dioxo-1,6,8,9-tetrahydro-7H-purin-7-yl)but-2-enoate] | 3.61 | >100* μM | – | – |
| CCn1c(=O)n([C@@H]2O[C@H](CO)[C@H](O)[C@H]2O)c2nc(N)[nH]c(=O)c21 [Compound 16, 2-Amino-9-((2R,3R,4R,5R)-3,4-dihydroxy-5-(hydroxymethyl)tetrahydrofuran-2-yl)-7-ethyl-7,9-dihydro-1H-purine-6,8-dione] | 3.27 | >100* μM | – | – |
| C#CCn1c(=O)n([C@@H]2O[C@H](CO)[C@H](F)[C@H]2O)c2nc(N)[nH]c(=O)c21 [Compound 28, 2-Amino-9-((2R,3S,4R,5R)-4-fluoro-3-hydroxy-5-(hydroxymethyl)tetrahydrofuran-2-yl)-7-(prop-2-yn-1-yl)-7,9-dihydro-1H-purine-6,8-dione] | 3.33 | less than or equal to 40 μM and 33 μM | < 100 µM | – |
